In patent US5646000A, “Compounds and methods for identifying activated platelets” (Merck & Co., Inc., priority 1994, dated 1997):
Where two headings read alike, the source gives them in different places.

How the values were obtained:
[1] = system: ADP-stimulated platelets; test: Fibrinogen Receptor Antagonist Assay: ADP-stimulated platelet aggregation (gel-filtered human platelets); type: cell-based; conditions: gel-filtered human platelets 2×10^8 per ml, fibrinogen 100 μg/ml, Ca^2+ 1 mM, 10 μM ADP, 37° C.
Procedure: The fibrinogen receptor antagonist activity is based on evaluation of inhibition of ADP-stimulated platelets. Aggregation requires that fibrinogen bind to and occupy the fibrinogen receptor site. Inhibitors of fibrinogen binding inhibit aggregation.
Platelet aggregation was measured at 37° C. in a Chronolog aggregometer. The reaction mixture contained gel-filtered human platelets (2×10^8 per ml), fibrinogen (100 μg/ml), Ca^2+ (1 mM), and the compound to be tested. The aggregation was initiated by adding 10 μM ADP after the other components had been added. The reaction was allowed to proceed for at least 2 minutes.

[2] = target: inactive form of GP IIb/IIIa (unactivated GP IIb/IIIa) (Homo sapiens, UniProt P05106+P08514); test: Fluorescence displacement of probe 2-8 from inactive (unactivated) form of GP IIb/IIIa; type: binding
Sequence of inactive form of GP IIb/IIIa (unactivated GP IIb/IIIa) (P08514 32-887 limits assumed): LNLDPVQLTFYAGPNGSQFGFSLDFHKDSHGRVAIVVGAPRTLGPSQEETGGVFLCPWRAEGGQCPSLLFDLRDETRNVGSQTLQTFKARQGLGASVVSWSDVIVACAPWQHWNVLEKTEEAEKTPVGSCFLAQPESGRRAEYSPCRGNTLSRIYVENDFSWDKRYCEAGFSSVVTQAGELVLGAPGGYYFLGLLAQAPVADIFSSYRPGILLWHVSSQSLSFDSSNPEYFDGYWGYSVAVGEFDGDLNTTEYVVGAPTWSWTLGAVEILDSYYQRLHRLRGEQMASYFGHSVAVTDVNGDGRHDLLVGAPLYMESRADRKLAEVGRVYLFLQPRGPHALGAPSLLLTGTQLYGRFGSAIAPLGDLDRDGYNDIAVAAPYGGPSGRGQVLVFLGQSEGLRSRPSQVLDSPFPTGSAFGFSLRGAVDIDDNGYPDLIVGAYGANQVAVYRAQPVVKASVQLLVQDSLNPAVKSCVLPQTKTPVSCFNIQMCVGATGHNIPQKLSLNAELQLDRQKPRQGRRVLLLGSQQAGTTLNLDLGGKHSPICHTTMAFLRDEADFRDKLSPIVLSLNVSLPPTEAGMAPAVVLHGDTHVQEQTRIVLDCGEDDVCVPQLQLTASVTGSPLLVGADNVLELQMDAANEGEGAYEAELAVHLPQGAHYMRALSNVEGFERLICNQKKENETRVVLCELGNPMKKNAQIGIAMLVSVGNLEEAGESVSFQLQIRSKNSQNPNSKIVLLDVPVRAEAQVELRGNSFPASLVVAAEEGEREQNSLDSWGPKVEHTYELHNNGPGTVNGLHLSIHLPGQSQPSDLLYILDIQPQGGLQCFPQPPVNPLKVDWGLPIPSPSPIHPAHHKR
Sequence of inactive form of GP IIb/IIIa (unactivated GP IIb/IIIa) (P08514 891-1039 partner limits assumed): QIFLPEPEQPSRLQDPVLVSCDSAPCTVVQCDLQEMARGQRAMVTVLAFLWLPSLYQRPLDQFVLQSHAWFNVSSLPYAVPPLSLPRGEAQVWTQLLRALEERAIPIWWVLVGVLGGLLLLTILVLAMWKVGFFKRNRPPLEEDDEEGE
Sequence of inactive form of GP IIb/IIIa (unactivated GP IIb/IIIa) (P05106 27-788): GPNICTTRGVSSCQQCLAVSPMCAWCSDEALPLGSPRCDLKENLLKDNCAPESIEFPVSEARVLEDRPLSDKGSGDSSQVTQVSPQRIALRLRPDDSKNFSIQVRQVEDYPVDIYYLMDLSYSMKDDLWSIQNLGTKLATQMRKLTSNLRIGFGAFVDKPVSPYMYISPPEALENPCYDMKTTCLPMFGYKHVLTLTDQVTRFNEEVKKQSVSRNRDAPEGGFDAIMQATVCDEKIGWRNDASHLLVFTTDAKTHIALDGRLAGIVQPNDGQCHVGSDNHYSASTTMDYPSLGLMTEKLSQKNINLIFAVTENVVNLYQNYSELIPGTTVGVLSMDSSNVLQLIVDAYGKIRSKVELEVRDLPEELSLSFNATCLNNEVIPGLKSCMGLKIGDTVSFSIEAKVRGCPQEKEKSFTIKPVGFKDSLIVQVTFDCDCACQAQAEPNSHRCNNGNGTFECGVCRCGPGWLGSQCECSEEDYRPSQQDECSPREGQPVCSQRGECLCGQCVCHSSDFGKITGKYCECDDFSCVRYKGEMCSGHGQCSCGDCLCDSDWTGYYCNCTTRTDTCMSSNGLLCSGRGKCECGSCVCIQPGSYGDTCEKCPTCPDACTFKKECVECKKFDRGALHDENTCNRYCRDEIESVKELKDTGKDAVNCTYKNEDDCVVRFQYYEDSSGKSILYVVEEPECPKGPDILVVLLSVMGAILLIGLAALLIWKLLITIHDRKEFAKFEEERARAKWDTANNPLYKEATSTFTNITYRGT

[3] = target: active form of GP IIb/IIIa (Homo sapiens, UniProt P05106+P08514); test: Fluorescence displacement of probe 2-8 from active form of purified GP IIb/IIIa; type: binding
Sequence of active form of GP IIb/IIIa (P08514 32-887 limits assumed): as the sequence (P08514 32-887 limits assumed) above
Sequence of active form of GP IIb/IIIa (P08514 891-1039 partner limits assumed): as the sequence (P08514 891-1039 partner limits assumed) above
Sequence of active form of GP IIb/IIIa (P05106 27-788): as the sequence (P05106 27-788) above
Procedure: The purified glycoprotein IIb/IIIa (final concentration 0.64 μM, active form which binds to RGDS affinity column) was mixed with fluorescent antagonist 2-8 (final concentration 1 μM) in a fluorescence cell and fluorescence recorded (excitation wavelength 340 nm, emission range 360-600 nm).

[4] = unactivated GP IIb/IIIa (Table 1), read-out: Ki (nM) (unactivated GP IIb/IIIa)

Compound | IC50 [1] | Ki [2, 4] | Ki ([3]; GP IIb/IIIa 0.64 μM, probe 2-8 1 μM, excitation 340 nm, change in fluorescence at 550 nm, read-out: Ki for nonfluorescent antagonist toward the active form of GP IIb/IIIa) | Ki ([2]; inactive form, does not bind to RGDS affinity column, displacement of 2-8, read-out: Ki on inactive form of GP IIb/IIIa) | Ki ([3]; active form of GP IIb/IIIa, binds to RGDS affinity column, read-out: Ki of fluorescence antagonist 2-8 (used for the calculation))
O=C(O)CCNC(=O)c1ccc2c(c1)C(=O)N(CCC1CCNCC1)C2 [Compound A, 2,3-Dihydro-N-(2-carboxyethyl)-2-[2-(4-piperidinyl)ethyl]-3-oxo-1-H-isoindole-5-carboxamide] | 27 nM | 99 nM |  |  | 
O=C(O)C[C@@H](CCc1c[nH]c2ccccc12)NC(=O)CNC(=O)CCCC1CCNCC1 [Compound B, Pib-Gly-3(R)-[2(indol-3-yl)ethyl]β-alanine hydrogen chloride] | 94 nM |  | 4 nM | 470 nM | 
CN(C)c1cccc2c(S(=O)(=O)N[C@@H](CNC(=O)c3ccc4c(c3)C(=O)N(CCC3CCNCC3)C4)C(=O)O)cccc12 [Compound 2-8, 1H-Isoindole-5-carboxamide, 2,3-dihydro-N-[2(S)-dansylamino-3-aminopropionic acid]-2-[2-(4-piperidinyl)ethyl]-3-oxo] |  |  |  |  | 3.7 nM

Now from value to compound:

IC50 [1] | Ki [2, 4] | Ki ([3]; GP IIb/IIIa 0.64 μM, probe 2-8 1 μM, excitation 340 nm, change in fluorescence at 550 nm, read-out: Ki for nonfluorescent antagonist toward the active form of GP IIb/IIIa) | Ki ([2]; inactive form, does not bind to RGDS affinity column, displacement of 2-8, read-out: Ki on inactive form of GP IIb/IIIa) | Ki ([3]; active form of GP IIb/IIIa, binds to RGDS affinity column, read-out: Ki of fluorescence antagonist 2-8 (used for the calculation)) | Compound
21 nM | 2.4 nM |  |  |  | CCCCS(=O)(=O)N[C@@H](CNC(=O)c1ccc2c(c1)C(=O)N(CCC1CCNCC1)C2)C(=O)O [Compound D, 1-H-isoindole-5-carboxamide, 2,3 dihydro-N-[3-(2(S)-n-butylsulfonylamino)propionic acid]-2-[2-(4-piperidinyl)ethyl]-3-oxo]
8 nM | ≤ 2.7 nM |  |  |  | O=C(NC[C@H](NS(=O)(=O)c1cccnc1)C(=O)O)c1cc2cc(CCC3CCNCC3)sc2s1 [Compound E, 5-[2-(Piperidin-4-yl)ethyl]thieno[2,3-b]thiophene-2-N-[3-2(S)-(3-pyridylsulfonylamino)propionic acid] carboxamide]
